In test [1] the target is T1, EGFR L858R/T790M/C797S (BaF3-LTC cells) (Homo sapiens, UniProt P00533, C797S/L858R/T790M).
T1 construct: expressed in transfected cells; host or cells: BaF3
Briefly: EGFR degradation HTRF assay, BaF3-LTC cells. Format: cell-based. The settings on record: BaF3-LTC, 16h treatment; for Dmax: maximum percentage of degradation, read-out: LTC Dmax (%); for DC50: read-out: LTC DC50. The essentials:
(§1)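 Cells treated 16 h at 37 °C, 5% CO2 in medium with 0.2% DMSO; top final concentration 10 uM, 5-fold dilution, 8 doses. Lysates read by HTRF (665/620 nm); degradation % versus DMSO high control, DC50 from four-parameter fit, Dmax as maximal degradation.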
(In general: TR-FRET usually uses a lanthanide donor and a delayed reading to cut background.)

For test [2], the system named is EGFR Del19/T790M/C797S (BaF3-DTC cells). As to the kind of experiment: EGFR degradation HTRF assay, BaF3-DTC cells. To be noted: 16h treatment; for DTC Dmax (%): maximum percentage of degradation; for DC50: read-out: DTC DC50. Format: cell-based. A digest of the protocol: as §1

T1 sequence (P00533 25-1210 T790M/C797S/L858R): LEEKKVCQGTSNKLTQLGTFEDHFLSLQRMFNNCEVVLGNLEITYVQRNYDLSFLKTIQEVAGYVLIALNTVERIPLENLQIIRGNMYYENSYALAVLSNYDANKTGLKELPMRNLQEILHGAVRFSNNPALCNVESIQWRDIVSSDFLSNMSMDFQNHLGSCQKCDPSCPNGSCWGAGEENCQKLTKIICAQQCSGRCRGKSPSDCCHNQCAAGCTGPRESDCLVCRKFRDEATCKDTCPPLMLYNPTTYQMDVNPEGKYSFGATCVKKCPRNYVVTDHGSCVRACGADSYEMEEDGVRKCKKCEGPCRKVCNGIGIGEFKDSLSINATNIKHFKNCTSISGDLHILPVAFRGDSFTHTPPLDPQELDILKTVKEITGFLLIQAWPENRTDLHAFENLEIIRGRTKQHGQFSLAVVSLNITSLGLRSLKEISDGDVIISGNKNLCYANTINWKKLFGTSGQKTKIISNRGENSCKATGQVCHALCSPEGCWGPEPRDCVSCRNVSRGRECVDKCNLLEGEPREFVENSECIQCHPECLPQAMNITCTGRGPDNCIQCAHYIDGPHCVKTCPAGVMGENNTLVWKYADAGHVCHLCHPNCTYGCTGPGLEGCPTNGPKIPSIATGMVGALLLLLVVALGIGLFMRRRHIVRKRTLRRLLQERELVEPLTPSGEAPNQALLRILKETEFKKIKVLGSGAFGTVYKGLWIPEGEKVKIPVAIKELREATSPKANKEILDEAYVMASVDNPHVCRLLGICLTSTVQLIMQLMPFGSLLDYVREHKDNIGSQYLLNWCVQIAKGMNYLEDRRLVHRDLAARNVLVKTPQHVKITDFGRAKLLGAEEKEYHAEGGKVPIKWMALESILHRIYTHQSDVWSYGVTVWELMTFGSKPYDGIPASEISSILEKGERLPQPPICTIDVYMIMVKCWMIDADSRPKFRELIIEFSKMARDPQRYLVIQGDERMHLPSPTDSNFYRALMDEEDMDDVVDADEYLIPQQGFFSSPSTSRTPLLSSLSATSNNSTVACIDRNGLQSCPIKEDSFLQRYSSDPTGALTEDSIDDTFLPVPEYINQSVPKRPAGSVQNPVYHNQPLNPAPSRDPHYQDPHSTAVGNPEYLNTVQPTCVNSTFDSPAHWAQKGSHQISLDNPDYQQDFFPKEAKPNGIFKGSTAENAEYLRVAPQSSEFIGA

As a reminder, the Dmax is the largest share of the target that was removed. As usually defined, the DC50 is the concentration giving 50% degradation. As to `CCc1cc(Nc2ncc(Br)c(Nc3ccc4nccnc4c3P(C)(C)=O)n2)c(OC)cc1N1CCC(N2CCN(C(=O)[C@H]3C[C@H](N(C)c4ccc5c(c4)C(=O)N(C4CCC(=O)NC4=O)C5=O)C3)CC2)CC1` (some centres unmarked) [Example 236, 5-(((1r,3r)-3-(4-(1-(4-((5-bromo-4-((5-(dimethylphosphoryl)quinoxalin-6-yl)amino)pyrimidin-2-yl)amino)-2-ethyl-5-methoxyphenyl)piperidin-4-yl)piperazine-1-carbonyl)cyclobutyl)(methyl)amino)-2-(2,6-dioxopiperidin-3-yl)isoindoline-1,3-dione], in test [1], the Dmax was found to be 83% and the half-maximal degradation concentration (DC50) was 33.5 nM. Further, in test [2], the “DTC Dmax (%)” value was determined as 90.89% and the DC50 was found to be 6.3 nM.
The corresponding values for `CCc1cc(Nc2ncc(Br)c(Nc3ccc4cc(C)ncc4c3P(C)(C)=O)n2)c(OC)cc1N1CCC(N2CCN(CCc3cc(F)c(C4CCC(=O)NC4=O)c(F)c3)CC2)CC1` (centres unmarked) [Example 200, 3-(4-(2-(4-(1-(4-((5-bromo-4-((8-(dimethylphosphoryl)-3-methylisoquinolin-7-yl)amino)pyrimidin-2-yl)amino)-2-ethyl-5-methoxyphenyl)piperidin-4-yl)piperazin-1-yl)ethyl)-2,6-difluorophenyl)piperidine-2,6-dione] are 88.6%, 11.1 nM, 93.3% and 2.8 nM.
On to `CCc1cc(Nc2ncc(Br)c(Nc3ccc4nccnc4c3P(C)(C)=O)n2)c(OC)cc1N1CCC(N2CCN(CCc3ccc(C4CCC(=O)NC4=O)c(F)c3)[C@@H](COC)C2)CC1` (stereo partly drawn) [Example 293, 3-(4-(2-((R)-4-(1-(4-((5-bromo-4-((5-(dimethylphosphoryl)quinoxalin-6-yl)amino)pyrimidin-2-yl)amino)-2-ethyl-5-methoxyphenyl)piperidin-4-yl)-2-(methoxymethyl)piperazin-1-yl)ethyl)-2-fluorophenyl)piperidine-2,6-dione], for which, in test [1], the Dmax turned out to be 85.3% and the DC50 came out at 43.7 nM. In test [2], the “DTC Dmax (%)” value was determined as 83.85% and the DC50 came out at 17.4 nM.
As for `CCc1cc(Nc2ncc(Br)c(Nc3ccc4nc(C(F)(F)F)ccc4c3P(C)(C)=O)n2)c(OC)cc1N1CCC(N2CCN(CCC3CCN(c4cc(F)c(C5CCC(=O)NC5=O)c(F)c4)CC3)CC2)CC1` (centres unmarked) [Example 437, 3-(4-(4-(2-(4-(1-(4-((5-bromo-4-((5-(dimethylphosphoryl)-2-(trifluoromethyl)quinolin-6-yl)amino)pyrimidin-2-yl)amino)-2-ethyl-5-methoxyphenyl)piperidin-4-yl)piperazin-1-yl)ethyl)piperidin-1-yl)-2,6-difluorophenyl)piperdine-2,6-dione], in test [1], the Dmax is 91.2% and the half-maximal degradation concentration (DC50) worked out at 28 nM. In test [2], the “DTC Dmax (%)” value was 83.88% and the DC50 was found to be 14.9 nM.
The matching figures for `COc1cc(N2CCC(N3C[C@@H]4C[C@H]3CN4CCC3CCN(c4cc(F)c(C5CCC(=O)NC5=O)c(F)c4)CC3)CC2)c(C)cc1Nc1ncc(Br)c(Nc2ccc3nccnc3c2P(C)(C)=O)n1` (stereo partly drawn) [Example 268, 3-(4-(4-(2-((1S,4S)-5-(1-(4-((5-bromo-4-((5-(dimethylphosphoryl)quinoxalin-6-yl)amino)pyrimidin-2-yl)amino)-5-methoxy-2-methylphenyl)piperidin-4-yl)-2,5-diazabicyclo[2.2.1]heptan-2-yl)ethyl)piperidin-1-yl)-2,6-difluorophenyl)piperidine-2,6-dione]: 90.5%, 33.5 nM, 93.75% and 22 nM.
Regarding `CCc1cc(Nc2ncc(Br)c(Nc3ccc4nccnc4c3P(C)(C)=O)n2)c(OC)cc1N1CCC(N2CCN(C3CCN(c4ccc(C5CCC(=O)NC5=O)cc4)C3)CC2)CC1` (centres unmarked) [Example 281, 3-(4-(3-(4-(1-(4-((5-bromo-4-((5-(dimethylphosphoryl)quinoxalin-6-yl)amino)pyrimidin-2-yl)amino)-2-ethyl-5-methoxyphenyl)piperidin-4-yl)piperazin-1-yl)pyrrolidin-1-yl)phenyl)piperidine-2,6-dione], in test [1], the maximal degradation (Dmax) amounted to 74.6% and the 50% degradation concentration (DC50) came to 63.3 nM. In test [2], the “DTC Dmax (%)” value is listed as 67.1% and the DC50 amounted to 43.3 nM.
With `COc1cc(N2CCC(N3CCN(CCC4CCN(c5cc(F)c(C6CCC(=O)NC6=O)c(F)c5)CC4)CC3)CC2)ccc1Nc1ncc(Br)c(Nc2ccc3nccnc3c2P(C)(C)=O)n1` (centres unmarked) [Example 213, 3-(4-(4-(2-(4-(1-(4-((5-bromo-4-((5-(dimethylphosphoryl)quinoxalin-6-yl)amino)pyrimidin-2-yl)amino)-3-methoxyphenyl)piperidin-4-yl)piperazin-1-yl)ethyl)piperidin-1-yl)-2,6-difluorophenyl)piperidine-2,6-dione], in test [1], the Dmax came to 88.6% and the DC50 was 21.1 nM. Also, in test [2], the “DTC Dmax (%)” value amounted to 94.05% and the DC50 amounted to 4.71 nM.
As for `CCc1cc(Nc2ncc(Br)c(Nc3ccc4nccnc4c3P(C)(C)=O)n2)c(OC)cc1N1CCC(N2CCN(C3CN(c4cc(F)c(C5CCC(=O)NC5=O)c(F)c4)C3)CC2)CC1` (centres unmarked) [Example 302, 3-(4-(3-(4-(1-(4-((5-bromo-4-((5-(dimethylphosphoryl)quinoxalin-6-yl)amino)pyrimidin-2-yl)amino)-2-ethyl-5-methoxyphenyl)piperidin-4-yl)piperazin-1-yl)azetidin-1-yl)-2,6-difluorophenyl)piperidine-2,6-dione], in test [1], the maximal degradation (Dmax) came out at 83.8% and the DC50 turned out to be 17 nM. Further, in test [2], the “DTC Dmax (%)” value came to 88.36% and the half-maximal degradation concentration (DC50) came out at 6.02 nM.
The corresponding values for `CCc1cc(Nc2ncc(Br)c(Nc3ccc4nc(C(C)C)ccc4c3P(C)(C)=O)n2)c(OC)cc1N1CCC(N2CCN(CCC3CCN(c4cc(F)c(C5CCC(=O)NC5=O)c(F)c4)CC3)CC2)CC1` (centres unmarked) [Example 313, 3-(4-(4-(2-(4-(1-(4-((5-bromo-4-((5-(dimethylphosphoryl)-2-isopropylquinolin-6-yl)amino)pyrimidin-2-yl)amino)-2-ethyl-5-methoxyphenyl)piperidin-4-yl)piperazin-1-yl)ethyl)piperidin-1-yl)-2,6-difluorophenyl)piperidine-2,6-dione] are 87.5%, 53.7 nM, 90.8% and 28.6 nM.
The corresponding values for `CCc1cc(Nc2ncc(Br)c(Nc3ccc4ncccc4c3P(C)(C)=O)n2)c(OC)cc1N1CCC(N2CCN(CCc3cc(F)c(C4CCC(=O)NC4=O)c(F)c3)CC2)CC1` (centres unmarked) [Example 201, 3-(4-(2-(4-(1-(4-((5-bromo-4-((5-(dimethylphosphoryl)quinolin-6-yl)amino)pyrimidin-2-yl)amino)-2-ethyl-5-methoxyphenyl)piperidin-4-yl)piperazin-1-yl)ethyl)-2,6-difluorophenyl)piperidine-2,6-dione] are 92%, 6.8 nM, 95.68% and 1.72 nM.
As for `CCc1cc(Nc2ncc(Br)c(Nc3ccc4nccnc4c3P(C)(C)=O)n2)c(OC)cc1N1CCC(N2CCN(C(=O)C3CN(c4ccc5c(c4)CN(C4CCC(=O)NC4=O)C5=O)C3)CC2)CC1` (centres unmarked) [Example 246, 3-(5-(3-(4-(1-(4-((5-bromo-4-((5-(dimethylphosphoryl)quinoxalin-6-yl)amino)pyrimidin-2-yl)amino)-2-ethyl-5-methoxyphenyl)piperidin-4-yl)piperazine-1-carbonyl)azetidin-1-yl)-1-oxoisoindolin-2-yl)piperidine-2,6-dione], in test [1], the Dmax turned out to be 91% and the DC50 was 4.47 nM. In test [2], the “DTC Dmax (%)” value came to 93.85% and the DC50 came to 1.51 nM.
The matching figures for `CCc1cc(Nc2ncc(Br)c(Nc3ccc4nccnc4c3P(C)(C)=O)n2)c(OC)cc1N1CCC(N2CCN(C3CC4(CCN(c5ccc(C6CCC(=O)NC6=O)cc5)CC4)C3)CC2)CC1` (centres unmarked) [Example 311, 3-(4-(2-(4-(1-(4-((5-bromo-4-((5-(dimethylphosphoryl)quinoxalin-6-yl)amino)pyrimidin-2-yl)amino)-2-ethyl-5-methoxyphenyl)piperidin-4-yl)piperazin-1-yl)-7-azaspiro[3.5]nonan-7-yl)phenyl)piperidine-2,6-dione]: 76.3%, 78.2 nM, 77.19% and 31.8 nM.
Regarding `CCc1cc(Nc2ncc(Br)c(Nc3ccc4nccnc4c3P(C)(C)=O)n2)c(OC)cc1N1CCN(C2CCN(C3CCC(c4ccc(C5CCC(=O)NC5=O)cc4)C3)CC2)CC1` (centres unmarked) [Example 178, 3-(4-(3-(4-(4-(4-((5-bromo-4-((5-(dimethylphosphoryl)quinoxalin-6-yl)amino)pyrimidin-2-yl)amino)-2-ethyl-5-methoxyphenyl)piperazin-1-yl)piperidin-1-yl)cyclopentyl)phenyl)piperidine-2,6-dione], in test [1], the maximal degradation (Dmax) is 83.5% and the 50% degradation concentration (DC50) was found to be 71.8 nM. Also, in test [2], the “DTC Dmax (%)” value is 81.18% and the DC50 came to 44.4 nM.
Take `COc1cc(N2CCC(N3C[C@H]4C[C@@H]3CN4CCC3CCN(c4cc(F)c(C5CCC(=O)NC5=O)c(F)c4)CC3)CC2)c(C)cc1Nc1ncc(Br)c(Nc2ccc3nccnc3c2P(C)(C)=O)n1` (stereo partly drawn) [Example 267, 3-(4-(4-(2-((1R,4R)-5-(1-(4-((5-bromo-4-((5-(dimethylphosphoryl)quinoxalin-6-yl)amino)pyrimidin-2-yl)amino)-5-methoxy-2-methylphenyl)piperidin-4-yl)-2,5-diazabicyclo[2.2.1]heptan-2-yl)ethyl)piperidin-1-yl)-2,6-difluorophenyl)piperidine-2,6-dione]: in test [1], the greatest degradation seen (Dmax) worked out at 90.3% and the DC50 was found to be 47.7 nM. Moreover, in test [2], the “DTC Dmax (%)” value came out at 93.96% and the half-maximal degradation concentration (DC50) came to 17.9 nM.

The values above are taken from patent US20230265116A1, “DEGRADATION OF (EGFR) BY CONJUGATION OF EGFR INHIBITORS WITH E3 LIGASE LIGAND AND METHODS OF USE” (BEIGENE, LTD., priority 2020, published 2023).
